From ChEMBL document CHEMBL1201862, “PubChem BioAssay data set” (2004)
The source made the active and inactive calls.

What was measured:
[1] = target: Mitogen-activated protein kinase 10 (Homo sapiens, UniProt P53779); experiment: Dose response biochemical screening assay for inhibitors of c-Jun N-Terminal Kinase 3 (JNK3). [Related pubchem assays: 746 ]
[2] = viability inhibitors of stage V gametocytes – luminescence, dose response (AID 1117278); format: functional, cell-based;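 also: gametocytes exposed to compound for 24 hours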
[3] = viability loss in human Jurkat cells – cell-based, luminescence, cytotoxicity control for P. falciparum gametocyte viability project, dose response (AID 1117277); format: functional;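 also: potency reflects loss of cellular ATP meaning fewer viable cells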
[4] = target: T1, Tyrosine-protein phosphatase non-receptor type 7 (Homo sapiens, UniProt P35236); experiment: HePTP tyrosine phosphatase activity blockers – biochemical, absorbance, leukemia target, primary screen (AID 521); format: functional
T1 sequence (P35236 whole entry): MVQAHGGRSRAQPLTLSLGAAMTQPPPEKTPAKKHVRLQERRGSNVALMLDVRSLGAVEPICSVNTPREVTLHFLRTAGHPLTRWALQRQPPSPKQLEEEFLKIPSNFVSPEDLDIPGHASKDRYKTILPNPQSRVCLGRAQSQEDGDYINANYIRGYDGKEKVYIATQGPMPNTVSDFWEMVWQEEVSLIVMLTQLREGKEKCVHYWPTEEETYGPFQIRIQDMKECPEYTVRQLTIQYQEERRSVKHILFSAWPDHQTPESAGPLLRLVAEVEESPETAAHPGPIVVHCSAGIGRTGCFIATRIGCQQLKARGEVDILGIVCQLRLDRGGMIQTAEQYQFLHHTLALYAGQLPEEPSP

[5] = target: T2, Heat shock factor protein 1 (Mus musculus, UniProt P38532); experiment: enhancement of HSF1-driven luciferase signal – cell-based, NIH3T3, luminescence, dose retest, confirmation (AID 435004); format: functional;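 also: stress induced by proteasome inhibitor MG132 added 30 min after compound; luciferase reporter driven by HSF1 response element in NIH3T3 cells; actives raise luminescence as potentiators of the MG132 stress response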
T2 sequence (P38532 whole entry): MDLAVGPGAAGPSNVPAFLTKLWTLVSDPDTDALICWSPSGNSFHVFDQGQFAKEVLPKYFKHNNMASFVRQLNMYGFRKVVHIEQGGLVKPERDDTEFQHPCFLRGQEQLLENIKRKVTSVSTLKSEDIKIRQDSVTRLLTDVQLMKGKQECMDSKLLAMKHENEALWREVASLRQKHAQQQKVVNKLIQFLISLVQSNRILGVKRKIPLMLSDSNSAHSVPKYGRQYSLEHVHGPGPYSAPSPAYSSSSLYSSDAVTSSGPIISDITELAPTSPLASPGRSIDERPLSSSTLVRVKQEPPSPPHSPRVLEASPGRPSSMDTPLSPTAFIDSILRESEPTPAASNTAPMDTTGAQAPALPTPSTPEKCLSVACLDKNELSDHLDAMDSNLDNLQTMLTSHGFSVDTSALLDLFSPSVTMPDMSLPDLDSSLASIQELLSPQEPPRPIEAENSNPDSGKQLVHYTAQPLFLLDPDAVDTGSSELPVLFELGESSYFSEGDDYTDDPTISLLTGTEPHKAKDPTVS

[6] = Trypanosoma cruzi growth suppression in host cells – NIH3T3 host cells, beta-gal luminescence, confirmation (AID 2044); format: functional, cell-based;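 also: intracellular parasites grown in NIH/3T3 mouse fibroblasts as host cells; luminescent beta-galactosidase reporter signal from transgenic T. cruzi replicating inside host cells; inhibitors lower the luminescence signal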
[7] = NIH3T3 cell viability loss – ATP luminescence, mouse fibroblasts, counter-screen, dose response (AID 2010); format: functional, cell-based;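 also: cells exposed to compound for about 90 hours before reading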
[8] = NIH-3T3 fibroblast cytotoxicity, dose response, cytotoxicity control, cell-based, fluorescence, Alamar Blue, secondary assay (AID 2327); format: functional;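 also: NIH-3T3 mouse fibroblasts cultured with fluconazole at 8 µg/mL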
[9] = target: T3, RNA-binding protein pos-1 (Caenorhabditis elegans, UniProt G5EF15); experiment: disruptors of C. elegans POS-1 RNA interaction – biochemical, fluorescence polarization, dose response (AID 1964);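 also: purified POS-1 fused to maltose binding protein made in E. coli; potency of compounds blocking POS-1 binding to fluorescent RNA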
T3 sequence (G5EF15 whole entry): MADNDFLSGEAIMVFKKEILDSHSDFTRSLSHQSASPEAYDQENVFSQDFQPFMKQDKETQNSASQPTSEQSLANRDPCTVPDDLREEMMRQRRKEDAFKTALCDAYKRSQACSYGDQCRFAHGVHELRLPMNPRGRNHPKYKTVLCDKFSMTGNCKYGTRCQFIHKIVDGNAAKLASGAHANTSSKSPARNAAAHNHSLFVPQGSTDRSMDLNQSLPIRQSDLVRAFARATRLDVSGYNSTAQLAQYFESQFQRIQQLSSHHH

[10] = target: T4, Zinc finger protein mex-5 (Caenorhabditis elegans, UniProt Q9XUB2); experiment: potency of MEX-5 RNA-binding blockers – biochemical, C. elegans, fluorescence polarization, dose response (AID 1960)
T4 sequence (Q9XUB2 whole entry): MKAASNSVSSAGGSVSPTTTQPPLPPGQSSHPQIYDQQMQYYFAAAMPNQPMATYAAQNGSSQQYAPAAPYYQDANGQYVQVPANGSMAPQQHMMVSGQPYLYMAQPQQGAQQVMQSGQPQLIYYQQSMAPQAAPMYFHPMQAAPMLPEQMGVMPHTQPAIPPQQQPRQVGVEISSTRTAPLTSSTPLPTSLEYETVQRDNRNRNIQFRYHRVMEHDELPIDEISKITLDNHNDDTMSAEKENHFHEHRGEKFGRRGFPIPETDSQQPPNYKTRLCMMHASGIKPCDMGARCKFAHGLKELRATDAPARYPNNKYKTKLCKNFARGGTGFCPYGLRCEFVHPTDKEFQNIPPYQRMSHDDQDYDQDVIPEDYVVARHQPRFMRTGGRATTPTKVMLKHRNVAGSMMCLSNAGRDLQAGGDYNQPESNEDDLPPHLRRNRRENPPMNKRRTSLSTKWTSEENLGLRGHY

[11] = fluconazole-exposed Candida albicans growth modulators – fluorescence, retest, confirmation (AID 2467); format: functional, cell-based
[12] = target: T5, Endoribonuclease toxin MazF (Escherichia coli K-12, UniProt P0AE70); experiment: activation of MazEF endoribonuclease cleavage – biochemical, fluorescence, single-stranded RNA substrate, uHTS hits, dose response (AID 588481); format: functional
T5 sequence (P0AE70 whole entry): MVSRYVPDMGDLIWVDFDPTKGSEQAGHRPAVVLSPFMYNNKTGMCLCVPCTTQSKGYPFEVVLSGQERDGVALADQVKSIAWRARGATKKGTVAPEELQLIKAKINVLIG

[13] = target: T5, Endoribonuclease toxin MazF; experiment: substrate-only fluorescence increase artefacts – biochemical, single-stranded RNase substrate, counter-screen for MazEF activator project, dose response (AID 588502); format: functional
[14] = target: T6, Corticotropin-releasing factor receptor 2/Corticotropin-releasing factor-binding protein (Homo sapiens, UniProt P24387+Q13324); experiment: activators of CRF receptor 2 with binding protein – uHTS hits, confirmation (AID 602473); format: functional; conditions: read-out: EC50_Mean
T6 sequence (Q13324 whole entry): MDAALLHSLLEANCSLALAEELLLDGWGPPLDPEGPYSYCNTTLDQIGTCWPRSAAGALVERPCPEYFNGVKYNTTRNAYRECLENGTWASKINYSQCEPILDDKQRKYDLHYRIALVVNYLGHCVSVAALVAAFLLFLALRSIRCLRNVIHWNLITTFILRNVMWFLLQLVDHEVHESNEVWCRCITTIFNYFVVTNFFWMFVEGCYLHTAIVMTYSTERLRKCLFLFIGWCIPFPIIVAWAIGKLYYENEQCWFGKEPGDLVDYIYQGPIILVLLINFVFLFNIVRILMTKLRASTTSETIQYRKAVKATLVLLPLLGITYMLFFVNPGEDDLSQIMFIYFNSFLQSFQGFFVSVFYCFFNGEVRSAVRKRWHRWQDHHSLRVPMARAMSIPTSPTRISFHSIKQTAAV
T6 sequence (P24387 whole entry): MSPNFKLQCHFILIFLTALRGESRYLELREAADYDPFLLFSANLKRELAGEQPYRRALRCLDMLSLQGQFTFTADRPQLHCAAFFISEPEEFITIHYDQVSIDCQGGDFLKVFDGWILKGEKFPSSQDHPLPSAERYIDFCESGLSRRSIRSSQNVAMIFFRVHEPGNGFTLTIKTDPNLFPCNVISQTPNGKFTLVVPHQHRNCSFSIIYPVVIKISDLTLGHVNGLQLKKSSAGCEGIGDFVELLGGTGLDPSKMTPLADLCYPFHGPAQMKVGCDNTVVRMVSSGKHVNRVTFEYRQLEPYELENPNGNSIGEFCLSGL

[15] = viability loss in THP-1 monocytes – THP-1 cells, cytotoxicity control for Vif-APOBEC3G degradation inhibitor project, dose response (AID 1117359); format: functional; conditions: THP-1
[16] = target: Induced myeloid leukemia cell differentiation protein Mcl-1 (Homo sapiens, UniProt Q07820); format: functional
Induced myeloid leukemia cell differentiation protein Mcl-1, sequence (Q07820 whole entry): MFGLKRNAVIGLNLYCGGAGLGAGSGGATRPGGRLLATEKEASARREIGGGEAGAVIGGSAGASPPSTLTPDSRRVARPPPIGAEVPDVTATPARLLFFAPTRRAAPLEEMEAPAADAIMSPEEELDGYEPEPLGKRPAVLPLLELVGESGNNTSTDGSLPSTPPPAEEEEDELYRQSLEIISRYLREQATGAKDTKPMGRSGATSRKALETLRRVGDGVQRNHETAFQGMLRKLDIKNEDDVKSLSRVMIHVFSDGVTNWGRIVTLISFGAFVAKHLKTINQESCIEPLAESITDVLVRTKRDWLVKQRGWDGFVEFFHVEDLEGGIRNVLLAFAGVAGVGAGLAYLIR

[17] = target: Heat shock protein HSP 90-alpha (Homo sapiens, UniProt P07900); format: functional, organism-based
Large T antigen = Large T antigen (Simian virus 40, UniProt P03070); format: functional, Betapolyomavirus macacae;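 also: Confirmatory-stage PubChem screen for compounds that inhibit SV40 T antigen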
Large T antigen, sequence (P03070 whole entry): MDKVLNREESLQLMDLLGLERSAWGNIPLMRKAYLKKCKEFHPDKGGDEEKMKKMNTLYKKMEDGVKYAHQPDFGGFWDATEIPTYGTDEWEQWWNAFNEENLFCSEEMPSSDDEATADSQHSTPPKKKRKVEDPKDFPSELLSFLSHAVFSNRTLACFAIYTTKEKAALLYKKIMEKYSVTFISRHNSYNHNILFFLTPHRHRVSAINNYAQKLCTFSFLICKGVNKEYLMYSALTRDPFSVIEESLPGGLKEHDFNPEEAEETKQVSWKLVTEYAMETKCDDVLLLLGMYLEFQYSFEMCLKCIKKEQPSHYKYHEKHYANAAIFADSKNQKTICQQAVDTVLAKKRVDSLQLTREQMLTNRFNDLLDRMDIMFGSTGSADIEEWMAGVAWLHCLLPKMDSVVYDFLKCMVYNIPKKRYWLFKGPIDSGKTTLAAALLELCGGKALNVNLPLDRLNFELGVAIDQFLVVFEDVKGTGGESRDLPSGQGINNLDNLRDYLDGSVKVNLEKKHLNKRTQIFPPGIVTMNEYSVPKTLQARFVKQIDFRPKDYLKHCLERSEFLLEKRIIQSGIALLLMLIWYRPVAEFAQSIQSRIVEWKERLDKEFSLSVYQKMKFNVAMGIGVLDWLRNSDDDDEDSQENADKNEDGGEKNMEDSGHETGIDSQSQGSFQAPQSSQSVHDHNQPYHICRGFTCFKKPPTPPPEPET

[18] = target: T7, Replicative DNA helicase DnaB (Mycobacterium tuberculosis, UniProt P9WMR3); experiment: DnaB intein splicing inhibitors, dose response, biochemical, cell-free fluorescence (AID 449749); format: functional
T7 sequence (P9WMR3 whole entry): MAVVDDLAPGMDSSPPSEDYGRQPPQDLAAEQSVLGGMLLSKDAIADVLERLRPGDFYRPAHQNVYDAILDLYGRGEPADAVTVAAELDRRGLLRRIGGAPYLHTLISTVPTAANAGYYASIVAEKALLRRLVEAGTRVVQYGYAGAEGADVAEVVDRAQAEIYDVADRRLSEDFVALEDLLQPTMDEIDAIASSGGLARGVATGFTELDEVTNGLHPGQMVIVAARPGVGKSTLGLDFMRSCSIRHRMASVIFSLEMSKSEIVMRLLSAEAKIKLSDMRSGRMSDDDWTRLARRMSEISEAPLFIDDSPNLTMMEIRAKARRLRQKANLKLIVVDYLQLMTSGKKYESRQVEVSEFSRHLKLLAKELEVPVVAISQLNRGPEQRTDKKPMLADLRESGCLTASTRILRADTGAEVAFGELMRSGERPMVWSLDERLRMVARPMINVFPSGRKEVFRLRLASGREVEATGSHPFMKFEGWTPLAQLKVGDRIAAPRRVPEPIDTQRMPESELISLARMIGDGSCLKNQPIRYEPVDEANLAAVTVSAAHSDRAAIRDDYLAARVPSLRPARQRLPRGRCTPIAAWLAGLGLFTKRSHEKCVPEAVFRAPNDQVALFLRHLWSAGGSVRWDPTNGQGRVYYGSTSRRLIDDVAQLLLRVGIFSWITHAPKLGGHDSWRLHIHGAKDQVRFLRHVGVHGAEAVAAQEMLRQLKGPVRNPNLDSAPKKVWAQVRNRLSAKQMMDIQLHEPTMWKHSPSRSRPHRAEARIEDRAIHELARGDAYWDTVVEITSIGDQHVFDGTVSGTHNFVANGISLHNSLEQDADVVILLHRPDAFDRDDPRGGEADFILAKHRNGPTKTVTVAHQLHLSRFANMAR

Protein RecA = target: T8, Protein RecA (Mycobacterium tuberculosis, UniProt P9WHJ3); experiment: Fluorescence Cell-Free Homogeneous Dose Retest to Identify Inhibitors of RecA-Intein Splicing Activity. [Related pubchem assays (depositor defined):AID2097, AID2223, AID489010, AID492950]; format: functional
T8 sequence (P9WHJ3 whole entry): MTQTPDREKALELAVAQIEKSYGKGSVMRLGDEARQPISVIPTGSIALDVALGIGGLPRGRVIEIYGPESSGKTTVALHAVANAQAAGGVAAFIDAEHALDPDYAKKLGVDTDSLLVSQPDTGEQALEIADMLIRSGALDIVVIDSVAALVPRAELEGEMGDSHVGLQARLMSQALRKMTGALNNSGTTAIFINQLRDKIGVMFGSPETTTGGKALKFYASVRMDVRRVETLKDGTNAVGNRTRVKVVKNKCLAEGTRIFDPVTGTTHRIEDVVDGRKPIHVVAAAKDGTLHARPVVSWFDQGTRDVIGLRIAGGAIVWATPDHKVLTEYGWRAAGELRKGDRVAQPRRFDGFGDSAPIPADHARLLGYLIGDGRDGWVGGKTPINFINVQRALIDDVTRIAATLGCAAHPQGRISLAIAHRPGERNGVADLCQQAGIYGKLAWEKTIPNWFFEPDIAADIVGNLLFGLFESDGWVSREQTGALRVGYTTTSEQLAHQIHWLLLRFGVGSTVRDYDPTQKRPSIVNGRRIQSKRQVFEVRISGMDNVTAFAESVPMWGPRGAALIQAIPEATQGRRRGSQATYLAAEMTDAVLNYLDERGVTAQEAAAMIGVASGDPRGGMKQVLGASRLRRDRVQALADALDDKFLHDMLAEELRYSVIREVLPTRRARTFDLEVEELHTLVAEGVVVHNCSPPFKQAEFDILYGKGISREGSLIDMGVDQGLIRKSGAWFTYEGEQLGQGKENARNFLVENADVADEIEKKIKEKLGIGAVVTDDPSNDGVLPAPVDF

Mitogen-activated protein kinase 10, sequence (P53779 whole entry): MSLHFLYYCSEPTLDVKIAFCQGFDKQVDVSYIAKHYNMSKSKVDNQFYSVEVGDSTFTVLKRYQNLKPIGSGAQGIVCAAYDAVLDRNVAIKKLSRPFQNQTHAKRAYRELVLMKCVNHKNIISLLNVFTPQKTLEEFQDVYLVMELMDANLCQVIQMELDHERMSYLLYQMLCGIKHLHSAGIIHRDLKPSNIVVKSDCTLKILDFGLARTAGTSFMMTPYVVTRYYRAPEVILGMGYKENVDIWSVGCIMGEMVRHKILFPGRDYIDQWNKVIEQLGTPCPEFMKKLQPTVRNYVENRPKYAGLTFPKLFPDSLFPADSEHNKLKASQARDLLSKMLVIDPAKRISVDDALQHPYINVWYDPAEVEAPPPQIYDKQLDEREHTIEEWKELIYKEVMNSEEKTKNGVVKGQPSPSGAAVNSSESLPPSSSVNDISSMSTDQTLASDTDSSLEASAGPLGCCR

CCOC(=O)c1c(-c2ccc(OC)cc2)n[nH]c1N
IC50 [1]: 63.1 µM (not active)

CCCc1ccc(OCCNC(=O)CC)cc1
IC50 [2]: > 109 µM (inactive)
IC50 [3]: > 83.4 µM (inactive)

CC(=O)NC1C(=O)N=C(SCc2ccccc2)NC1=O (centres undefined)
IC50 [2]: > 109 µM (inactive)
IC50 [3]: > 83.3 µM (inactive)

N#Cc1sc2nc3c(c(-c4ccco4)c2c1N)CCCC3
IC50 [1]: 68.6 µM (not active)

O=C(NCc1cccc(F)c1)c1noc2c1CCCC2
IC50 [4]: > 100 µM (not active)
EC50 [5]: > 260 µM (inactive)

Cc1ccc(-c2csc(N=C(N)N)n2)c(C)c1
EC50 [6]: < 100 nM (active)
EC50 [7]: > 60 µM (not active)
EC50 (cells): 167 nM (active)

COc1ccccc1CNC(=O)Nc1cccs1
IC50 [4]: > 100 µM (not active)

CNC(=O)C1=NCCCc2cc(OC)c(OC)cc21
IC50 [4]: > 100 µM (not active)

CCN(CC)c1ccc(/N=C/c2ccc(N(CC)CC)cc2O)cc1
EC50 [8]: 147 µM (inconclusive)
EC50 [9]: > 300 µM (not active)
EC50 [10]: > 300 µM (not active)
EC50 [11]: > 38 µM (not active)
EC50 [6]: 3250 nM (active)
EC50 [7]: > 60 µM (not active)
EC50 [12]: > 99 µM (inactive)
EC50 [13]: > 99 µM (inactive)
EC50 [14]: 4.26 µM (active)
CC50 [15]: > 40 µM (active)

Cc1c(Cc2ccccc2)c(NCCN(C)C)n2c(nc3ccccc32)c1C#N
EC50 [6]: < 100 nM (active)
EC50 [7]: 34.1 µM (active)
IC50 [16]: 3.29 µM (active)
AC50 [17]: 2.37 µM (active)
EC50 (cells): 15 nM (active)

COc1ccc(Nc2ccc(OC)cc2)cc1
IC50 (Large T antigen): 26.2 µM (active)
AC50 [18]: 121 µM (active)
EC50 (Protein RecA): > 380 µM (inactive)
CC50 [15]: 21 µM (active)

N#Cc1c(N)nc2c(c1-c1ccncc1)CCCCC2
IC50 [2]: > 109 µM (inactive)
IC50 [3]: > 83.4 µM (inactive)
